Laboratory results taken from paper PMC6108126, “Purification, characterization and immunogenicity assessment of glutaminase free L-asparaginase from Streptomyces brollosae NEAE-115” (BMC Pharmacology & Toxicology, 2018).
Each block holds one molecule with its values, some of them ahead of it.

Legend:
[1] = test system: T1, L-asparaginase from Streptomyces brollosae NEAE-115; conditions: 0.05 M Tris-HCl, pH 8.6, 37 °C (standard assay); 1-10 mM substrate
T1 construct: gene L-asparagine amidohydrolase

purified protein = substrate: NC(=O)C[C@H](N)C(=O)O; experiment: purified protein; conditions: 0.05 M Tris-HCl, pH 8.6, 37 °C (standard assay), 1-10 mM substrate

Km [1]: 2140 µM
Molecule: NC(=O)C[C@H](N)C(=O)O [L-asparagine]

B1: commercially available L-asparaginase from E. coli (Escherichia coli K-12) (protein)
chain: LPNITILATGGTIAGGGDSATKSNYTVGKVGVENLVNAVPQLKDIANVKGEQVVNIGSQDMNDNVWLTLAKKINTDCDKTDGFVITHGTDTMEETAYFLDLTVKCDKPVVMVGAMRPSTSMSADGPFNLYNAVVTAADKASANRGVLVVMNDTVLDGRDVTKTNTTDVATFKSVNYGPLGYIHNGKIDYQRTPARKHTSDTPFDVSKLNELPKVGIVYNYANASDLPAKALVDAGYDGIVSAGVGNGNLYKSVFDTLATAAKTGTAVVRSSRVPTGATTQDAEVDDAKYGFVASGTLNPQKARVLLQLALTQTKDPQQIQQIFNQY
Km (purified protein): 176 µM
